The assay is described as follows: Inhibition of Bcr-Abl in mouse BA/F3 cells.
For `Cc1nc(C)c(Cn2ncc3c(Nc4ccc(OC(F)(F)F)cc4)ncnc32)s1` [1-((2,4-dimethylthiazol-5-yl)methyl)-N-(4-(trifluoromethoxy)phenyl)-1H-pyrazolo[3,4-d]pyrimidin-4-amine], a half-maximal effect (EC50) was put at 6920 nM. The result for `FC(F)(F)Oc1ccc(Nc2ncnc3c2cnn3CC2CCOC2)cc1` (stereo not drawn) [1-((tetrahydrofuran-3-yl)methyl)-N-(4-(trifluoromethoxy)phenyl)-1H-pyrazolo[3,4-d]pyrimidin-4-amine] reads 690 nM; that for `FC(F)(F)Oc1ccc(Nc2ncnc3c2cnn3Cc2cccnc2)cc1` [1-(pyridin-3-ylmethyl)-N-(4-(trifluoromethoxy)phenyl)-1H-pyrazolo[3,4-d]pyrimidin-4-amine], 7150 nM; that for `FC(F)(F)Oc1ccc(Nc2ncnc3c2cnn3Cc2ccccc2)cc1` [1-benzyl-N-(4-(trifluoromethoxy)phenyl)-1H-pyrazolo[3,4-d]pyrimidin-4-amine], 400 nM. The result for `FC(F)(F)Oc1ccc(Nc2ncnc3c2cnn3C2CCCCC2)cc1` [1-cyclohexyl-N-(4-(trifluoromethoxy)phenyl)-1H-pyrazolo[3,4-d]pyrimidin-4-amine] reads 400 nM.

The molecule `CCn1ncc2c(Nc3ccc(OC(F)(F)F)cc3)ncnc21` [1-ethyl-N-(4-(trifluoromethoxy)phenyl)-1H-pyrazolo[3,4-d]pyrimidin-4-amine] showed an EC50 of 300 nM.

Molecule `CCCn1ncc2c(Nc3ccc(OC(F)(F)F)cc3)ncnc21` [1-propyl-N-(4-(trifluoromethoxy)phenyl)-1H-pyrazolo[3,4-d]pyrimidin-4-amine] returned an EC50 of 270 nM. As for `CC(C)(C)n1ncc2c(Nc3ccc(OC(F)(F)F)cc3)ncnc21` [1-tert-butyl-N-(4-(trifluoromethoxy)phenyl)-1H-pyrazolo[3,4-d]pyrimidin-4-amine], the figure is 160 nM; as for `OCCn1ncc2c(Nc3ccc(OC(F)(F)F)cc3)ncnc21` [2-(4-(4-(Trifluoromethoxy)phenylamino)-1H-pyrazolo-[3,4-d]pyrimidin-1-yl)ethanol], 250 nM. Regarding `OCCn1cc2c(Nc3ccc(OC(F)(F)F)cc3)ncnc2n1` [2-(4-(4-(Trifluoromethoxy)phenylamino)-2H-pyrazolo[3,4-d]pyrimidin-2-yl)ethanol], a half-maximal effect (EC50) was put at 1320 nM.

In turn, `NC(=O)Cn1ncc2c(Nc3ccc(OC(F)(F)F)cc3)ncnc21` [2-(4-(4-(trifluoromethoxy)phenylamino)-1H-pyrazolo[3,4-d]pyrimidin-1-yl)acetamide] registered a half-maximal effective concentration (EC50) of 350 nM. The result for `NC(=O)Cn1cc2c(Nc3ccc(OC(F)(F)F)cc3)ncnc2n1` [2-(4-(4-(trifluoromethoxy)phenylamino)-2H-pyrazolo[3,4-d]pyrimidin-2-yl)acetamide] reads 4340 nM.

Turning to `NC(=O)c1ccccc1-c1cc(Nc2ccc(OC(F)(F)F)cc2)ncn1` [2-(6-(4-(trifluoromethoxy)phenylamino)pyrimidin-4-yl)benzamide], the EC50 was > 10000 nM.

As to `FC(F)(F)Oc1ccc(Nc2ncnc3nn(Cc4cccnc4)cc23)cc1` [2-(pyridin-3-ylmethyl)-N-(4-(trifluoromethoxy)phenyl)-2H-pyrazolo[3,4-d]pyrimidin-4-amine], a half-maximal effect (EC50) was put at 1700 nM. The result for `FC(F)(F)Oc1ccc(Nc2ncnc3nn(Cc4ccccc4)cc23)cc1` [2-benzyl-N-(4-(trifluoromethoxy)phenyl)-2H-pyrazolo[3,4-d]pyrimidin-4-amine] reads > 10000 nM; that for `FC(F)(F)Oc1ccc(Nc2ncnc3nn(C4CCCCC4)cc23)cc1` [2-cyclohexyl-N-(4-(trifluoromethoxy)phenyl)-2H-pyrazolo[3,4-d]pyrimidin-4-amine], 2200 nM; that for `CCn1cc2c(Nc3ccc(OC(F)(F)F)cc3)ncnc2n1` [2-ethyl-N-(4-(trifluoromethoxy)phenyl)-2H-pyrazolo[3,4-d]pyrimidin-4-amine], 1200 nM. The result for `CCCn1cc2c(Nc3ccc(OC(F)(F)F)cc3)ncnc2n1` [2-propyl-N-(4-(trifluoromethoxy)phenyl)-2H-pyrazolo[3,4-d]pyrimidin-4-amine] reads 160 nM.

Values taken from BindingDB's records for doi:10.1021/jm100555f (Harvard Medical School, 2010).
